Converted amounts (≈) assume the structure as drawn.

Series [1] has as its system Staphylococcus aureus. The experiment in a line: Antibacterial activity against methicillin-resistant Staphylococcus aureus ATCC 33591. It counts as functional.
Series [2] concerns Staphylococcus aureus. As to the kind of experiment: Antibacterial activity against methicllin-resistant Staphylococcus aureus. Type of series: functional.
The test system of series [3] is Staphylococcus aureus. As to the kind of experiment: Antibacterial activity against methicillin-resistant Staphylococcus aureus ATCC 33591 assessed as inhibition of bacterial growth incubated for 24 hrs by Mueller-Hinton broth assay. Type of series: functional.
For series [4], the system named is Staphylococcus aureus. As to the kind of experiment: Antibacterial activity against […] Staphylococcus aureus ATCC 29213 assessed as reduction in bacterial growth incubated for 16 to 18 hrs by CLSI protocol based Muller Hinton broth assay. It counts as functional. The following applies: time 16-18 hrs.
Series [5] deals with Staphylococcus aureus. As to the kind of experiment: Antibacterial activity against methicillin-resistant Staphylococcus aureus ATCC 43300 assessed as reduction in bacterial growth incubated for 18 hrs by mueller hinton broth dilution method. It counts as functional. Background: Broth dilution looks for growth in wells or tubes with falling amounts of substance.
The test system of series [6] is Staphylococcus aureus. The experiment in a line: Antibacterial activity against Staphylococcus aureus ATCC 25923 assessed as reduction in bacterial growth incubated for 24 hrs by broth micro-dilution method. Type of series: functional.
Another series concerns HepG2. As to the kind of experiment: Cytotoxicity against human HepG2 cells assessed as reduction in cell viability by measuring lethal concentration by SRB assay. It counts as functional. The note with it: read-out: LC50 (the source's name). (In general: In SRB staining, fixed cells bind dye roughly in proportion to their protein.)
The subject of series [7] is Staphylococcus aureus. The experiment in a line: Antibacterial activity against Staphylococcus aureus assessed as reduction in bacterial growth. Type of series: functional.
A short description of series [8]: Solubility of compound. Type of series: physicochemical.

With `CNC(=O)c1cc(Oc2ccc(NC(=O)Nc3ccc(Cl)c(C(F)(F)F)c3)cc2)ccn1` [SORAFENIB], in the series on Staphylococcus aureus [1], the MIC is 3 µM (≈ 1.39 µg/mL).

Turning to `CNC(=O)c1cc(Oc2ccc(NC(=O)Nc3ccccc3)cc2)ccn1`, in the series on Staphylococcus aureus [1], the MIC is over 100 µM.

On to `CCCCCCCn1c2ccccc2c2c(OCC(O)CCC=C(C)C)cccc21` (configuration not stated), for which it took 12.5 µg/mL (≈ 30.7 µM) to inhibit growth in the series with Staphylococcus aureus [2] (MIC).

On to `C=CCc1ccc(O)c(-c2ccc(O)c(CC=C)c2)c1` [HONOKIOL], for which, in the series with Staphylococcus aureus [3], the MIC was found to be 10 µg/mL (≈ 37.5 µM).

On to `C[C@@H]1CC[C@@]23CCC(=O)[C@H]2[C@]1(C)[C@H](OC(=O)CSc1ccncc1)CC(=O)[C@@H](O)[C@@H]3C`, for which the MIC in the series on Staphylococcus aureus [4] was over 16 µg/mL.

As to `O=C(Nc1ccc2c(c1)OC(F)(F)O2)Nc1ccc(Cl)c(C(F)(F)F)c1`, inhibition of growth against Staphylococcus aureus [1] (MIC) required 0.3 µM (≈ 0.118 µg/mL).

In the series with Staphylococcus aureus [1], `CNC(=O)c1cc(Oc2ccc(NC(=O)Nc3cccc(C(F)(F)F)c3)cc2)ccn1` came in with a minimal inhibitory concentration (MIC) of over 100 µM.

Turning to `CC[C@H]1C[C@@H](OC(=O)CS[C@@H]2CC[C@@H](N)C[C@H]2O)[C@]2(C)[C@H](C)C[C@]3(CCC(=O)[C@H]32)[C@@H](C)[C@@H]1O`, the MIC with Staphylococcus aureus [4] was over 16 µg/mL.

On to `CC(C)=CCCC(O)COc1cccc2c1c1ccccc1n2CC=C(C)C` (configuration not stated), for which it took 3.13 µg/mL (≈ 8.3 µM) to inhibit growth with Staphylococcus aureus [2] (MIC).

Turning to `CC[N+](CC)=c1sc2c(s1)C(c1ccc(Cl)cc1)Oc1ccc(C)cc1-2.F[B-](F)(F)F` (configuration not stated), the MIC with Staphylococcus aureus [5] was 3.9 µg/mL.

Take `CC[N+](CC)=c1sc2c(s1)C(c1ccc(Br)cc1)Oc1ccc(C)cc1-2.F[B-](F)(F)F` (configuration not stated): the MIC in the series with Staphylococcus aureus [5] is 1.95 µg/mL.

Turning to `CC[N+](CC)=c1sc2c(s1)C(c1ccc(F)cc1)Oc1ccc(C)cc1-2.F[B-](F)(F)F` (configuration not stated), the MIC in the series on Staphylococcus aureus [5] amounted to 16.6 µg/mL.

The compound `CC(C)=CCCC(O)COc1cccc2c1c1ccccc1n2C` (configuration not stated) had an MIC in the series with Staphylococcus aureus [2] of over 50 µg/mL.

For the compound `CNC(=O)c1cc(Oc2ccc(NC(=O)Nc3ccc(Cl)c(C)c3)cc2)ccn1`, the MIC with Staphylococcus aureus [1] was over 100 µM.

In the series with Staphylococcus aureus [1], `O=C(O)c1c(Sc2ccccc2)c2cc(Cl)ccc2n1Cc1ccc(Cl)cc1` yielded an MIC of 1 µM (≈ 0.428 µg/mL).

In the case of `C=CCc1ccc(O)c(-c2cc(CC=C)ccc2O)c1` [MAGNOLOL], the MIC in the series on Staphylococcus aureus [3] was determined as 20 µg/mL (≈ 75.1 µM).

Turning to `C=C[C@]1(C)C[C@@H](OC(=O)CSCCN(CC)CC)[C@]2(C)[C@H](C)CC[C@]3(CCC(=O)[C@H]32)[C@@H](C)[C@@H]1O` [TIAMULIN], the MIC in the series on Staphylococcus aureus [6] turned out to be 0.25 µg/mL (≈ 0.506 µM).

For the compound `CCCCCCCCCn1c2ccccc2c2c(OCC(O)CCC=C(C)C)cccc21` (configuration not stated), inhibition of growth in the series with Staphylococcus aureus [2] (MIC) required 6.25 µg/mL (≈ 14.3 µM).

As for `CCCCCn1c2ccccc2c2c(OCC(O)CCC=C(C)C)cccc21` (configuration not stated), the MIC against Staphylococcus aureus [2] amounted to 6.25 µg/mL (≈ 16.5 µM).

`O=C(O)c1ccc2cc(-c3ccc(O)c(C45CC6CC(CC(C6)C4)C5)c3)ccc2c1` [O-DEMETHYLATED ADAPALENE]: in the series on Staphylococcus aureus [5], the MIC came to 1 µg/mL (≈ 2.51 µM). Besides, the CC50 in the series with HepG2 stood at 5 µg/mL (≈ 12.5 µM).

Regarding `OCc1ccc2cc(-c3ccc(O)c(C45CC6CC(CC(C6)C4)C5)c3)ccc2c1`, in the series on Staphylococcus aureus [5], the MIC turned out to be 2 µg/mL (≈ 5.2 µM). For the same compound, the CC50 in the series with HepG2 was over 32 µg/mL.

As to `Cn1cc(-c2ccc(Cn3cnc4c(N5CCNCC5)ncnc43)cc2)nn1`, the MIC in the series with Staphylococcus aureus [7] is 0.25 µg/mL (≈ 0.666 µM). In addition, in series [8], the solubility worked out at 31 µM (≈ 11.6 µg/mL).

On to `C=C[C@]1(C)C[C@@H](OC(=O)CS[C@@H]2CC[C@@H](N)C[C@H]2O)[C@]2(C)[C@H](C)CC[C@]3(CCC(=O)[C@H]32)[C@@H](C)[C@@H]1O` [LEFAMULIN], for which the MIC in the series with Staphylococcus aureus [6] turned out to be 0.12 µg/mL (≈ 0.236 µM).

Take `CC[C@@]1(C)C[C@@H](OC(=O)CSc2ccncc2)[C@]2(C)[C@H](C)CC[C@]3(CCC(=O)[C@H]32)[C@@H](C)[C@@H]1O`: the MIC with Staphylococcus aureus [4] was found to be 0.06 µg/mL (≈ 0.127 µM).

Take `CCCn1c2ccccc2c2c(OCC(O)CCC=C(C)C)cccc21` (configuration not stated): 50 µg/mL (≈ 142 µM) was the least that counted as inhibitory in the series on Staphylococcus aureus [2] (MIC).

As to `C=C[C@]1(C)C[C@@H](OC(=O)CSC(C)(C)CNC(=O)[C@H](N)C(C)C)[C@]2(C)[C@H](C)CC[C@]3(CCC(=O)[C@H]32)[C@@H](C)[C@@H]1O` [VALNEMULIN], in the series on Staphylococcus aureus [6], the MIC was 0.06 µg/mL (≈ 0.106 µM).

With `Cn1cc(-c2ccc(Cn3cnc4c(N5CCNCC5)ncnc43)nc2)nn1`, the MIC in the series with Staphylococcus aureus [7] was found to be 0.12 µg/mL (≈ 0.319 µM). Moreover, in series [8], the solubility stood at 114 µM (≈ 42.9 µg/mL).

As to `Oc1c(Cl)cc(Cl)cc1Sc1cc(Cl)cc(Cl)c1O` [BITHIONOL], inhibition of growth against Staphylococcus aureus [1] (MIC) required 0.5 µM (≈ 0.178 µg/mL).

Consider `C[C@@H]1[C@@H](O)[C@H](C)[C@]23CCC(=O)[C@H]2[C@@](C)([C@H](C)CC3)[C@@H]1OC(=O)CS[C@@H]1CC[C@@H](N)C[C@H]1O`, for which the MIC with Staphylococcus aureus [4] is over 32 µg/mL.

With `C=C[C@]1(C)C[C@@H](OC(=O)CS[C@@H]2C[C@H]3CC[C@@H](C2)N3C)[C@]2(C)[C@H](C)CC[C@]3(CCC(=O)[C@H]32)[C@@H](C)[C@@H]1O` [RETAPAMULIN], the MIC with Staphylococcus aureus [6] was found to be 0.25 µg/mL (≈ 0.483 µM).

In the case of `CCC(c1ccc(O)cc1)C(CC)c1ccc(O)cc1` (configuration not stated), 16 µM (≈ 4.33 µg/mL) was the least that counted as inhibitory against Staphylococcus aureus [1] (MIC).

In the case of `Cn1cc(-c2ccc(Cn3cnc4c(N)ncnc43)cc2)nn1`, in the series on Staphylococcus aureus [7], the MIC came to 16.6 µg/mL (≈ 54.3 µM).

For `O=C(O)/C=C/c1ccc(-c2ccc(O)c(C34CC5CC(CC(C5)C3)C4)c2)cc1` [ADAROTENE], in the series on Staphylococcus aureus [5], the MIC came out at 2 µg/mL (≈ 5.34 µM).

The MIC is the lowest concentration that inhibits growth of the organism. As a reminder, the solubility is the concentration that dissolves in the medium under given conditions. Read a low solubility as a poorly soluble substance.

Values taken from ChEMBL document CHEMBL6134881, “From Natural Products to Small Molecules: Recent Advancements in Anti-MRSA Therapeutics” (ACS Med Chem Lett, 2025).
